{"source": "paper PMC6226472", "about": "“Cardol triene inhibits dengue infectivity by targeting kl loops and preventing envelope fusion” (Scientific Reports, 2018)", "key": {"ZIKV": {"tested_on": "ZIKV", "experiment": "Fusion inhibition study in C6/36 cells", "type": "cell-based, Zika virus", "conditions": "10 µM, C6/36, M.O.I. of 1, 48 h, MES", "experimental": "(§1) Fusion inhibition study[25]–[27] of DENV and ZIKV were used to confirm the findings. Briefly, cardol triene at 10 µM was added to DENV2 or ZIKV (Fig. 6C-D) infected C6/36 cells at the M.O.I. of 1 for 48 h before inducing acidic condition by MES. The 4G2 antibody was used as a positive control inhibiting both DENV2 and ZIKV fusion. […] Therefore, we concluded that one of the targets of cardol triene, and other CNSL-derived phenolic lipids, was the kl loops of DENV E protein, thus preventing the conformational change of DENV dimer to trimer that was required to initiate pH-dependent fusion.\n(§2) C6/36 (2 × 10^5) cells were seeded into 24-well plates before infection with DENV2 and ZIKV (M.O.I. of 1) as described. Cardol triene at 10 µM were introduced to the DENV2 and ZIKV infected cells during and after infection. […] Cells were incubate at 28 °C for 2 days before addition of 0.5 M 2-(N-morpholino) ethanesulfonic acid (MES) (pH 5.0) (Sigma Aldrich, St Louis, USA). Moreover, cells from selected wells subsequently underwent DAPI staining. Cell-cell fusion was observed under brightfield and fluorescence using an Eclipse TS100 Inverted Routine Microscope (Nikon, New York, USA)."}, "[1]": {"experiment": "Cytotoxic concentration (CC50)", "type": "cell-based", "conditions": "human", "experimental": "Next, the compound mixture were further purified and synthesized into saturated (C15:0), monoene (C15:1), diene (C15:2), and triene (C15:3) as described in materials and methods. Toxicities were analyzed and results were calculated to percent viability and CC50 were analyzed using non-linear regression curve (Table 1). […] Cardanol triene was insoluble in DMSO, therefore the compound was excluded from this study. It could be inferred that the polyunsaturated hydrocarbon may involve in stabilizing the cell membrane. […] Moreover, we further explored the CC50 of cardol triene in other cell lines to verify its protective effect. Three human-derived cell lines (THP-1, HEK-293, and HepG2) were used to co-incubate with cardol triene and cardol mixture (73% diene and 27% triene).\n(§3) Cytotoxic concentrations (CC50) were also studied using Vero cells. Briefly, the 10^4 cells were seeded into each well of 96-well plates. After an overnight incubation, phenolic lipids were serially diluted in DMSO to the final concentrations as follows; 25, 50, 100, 200, 300, 400, and 500 µM. Each concentration was performed in quadruplicates. DMSO at 1% was used as a mock treatment referring to 100% cell viability. Cells were incubated for 48 h before cell viability was accessed using CellTiler 96® Aqueous One Solution Cell Proliferation Assay kit (Promega, Wisconsin, USA). Non-linear regression analysis was used to determine cytotoxic concentrations (CC50) of each experiment. Results were derived from three independent experiments and reported as means and standard error of the means (SEM)."}, "[2]": {"tested_on": "normal human lung fibroblast cell line, GM07492A", "parameters": "method as in PMID 27934289", "conditions": "read-out: cytotoxicity value (CC50); cited from earlier work"}, "DENV4 (c0036)": {"tested_on": "DENV4 (c0036)", "experiment": "Efficacy (EC50) in infected Vero cells", "type": "cell-based", "conditions": "Dengue virus"}, "[3]": {"tested_on": "BHK-21/DENV2 replicon cells", "experiment": "Replicon cell viability, MTS assay", "type": "cell-based", "conditions": "10 µM and 20 µM, 72 h", "experimental": "We analyzed the replication inhibition using BHK-21/DENV2 replicon cells stably expressed the non-structural proteins. Cardol triene at 10 µM and 20 µM were added to the replicon cells for 72 h and the replication inhibition was accessed by RT-qPCR of DENV2 NS1. Ribavirin, a known inhibitor of flaviviral replication, was used as a positive inhibition control. […] Replicon cell viability under cardol triene treatment was also analyzed using an MTS assay. […] Therefore, we concluded that cardol triene inhibited DENV RNA replicon replication, potentially in dose-dependent manner.\nFigure 7 Replicon inhibition study. (A) DENV2/BHK-21 replicon (5 × 10^4 cells) were treated with cardol triene or ribavirin for 72 h. Percent inhibition was calculated from RT-qPCR of cell lysate. (B) Percent DENV2/BHK-21 replicon cell viability at 72 h under 10 and 20 µM cardol triene. Error bars represented standard error of means (SEM) from three independent experiments."}, "[4]": {"experiment": "Cytotoxic concentration (CC50), MTS", "type": "cell-based", "conditions": "African green monkey, Vero cells", "experimental": "as §3, with “experiment.” for “experiment. Results were derived from three independent experiments and reported as means and standard error of the means (SEM).”"}, "DENV2 [5]": {"tested_on": "DENV2", "experiment": "Fusion inhibition study in C6/36 cells", "type": "cell-based, Dengue virus", "conditions": "10 µM, C6/36, M.O.I. of 1, 48 h, MES", "experimental": "as §1, §2"}, "DENV3 (16562)": {"tested_on": "DENV3 (16562)", "experiment": "Efficacy (EC50) in infected Vero cells", "type": "cell-based", "conditions": "Dengue virus"}, "[6]": {"tested_on": "dengue virus serotype 1–4", "experiment": "Pan-dengue inhibition (EC50s over serotypes)", "type": "cell-based", "conditions": "DENV1, read-out: EC50s, pan-dengue inhibition"}, "DENV2 [7]": {"tested_on": "DENV2", "experiment": "Attachment inhibition study", "type": "cell-based, Dengue virus", "experimental": "Since dengue envelope protein was the key factor to receptor-binding, endocytosis, and fusion, we asked the question whether the compound would mainly neutralize the virion, inhibit the receptor binding, or inhibit endosomal fusion. Cardol triene at 10 µM was then co-incubated with DENV2 before, during, and after infection to Vero cells (Fig. 6A). […] Therefore, the major target was most likely at a pH-dependent endosomal fusion. […] However, the major post-infection inhibition required further investigations.\nVero (5 × 10^4) cells were seeded into 24-well plates as previously described. DENV2 (M.O.I. of 1) was diluted in ice-cold MEM with 1% fetal bovine serum[42] and was allowed to adsorb on the cells for 1 h with continuous rocking. Cardol triene (10 µM) was prepared in DMSO and was mixed with DENV2 (M.O.I. of 1) before adsorption for 1 h (pre-attachment). Cardol triene (10 µM) was also mixed with DENV2 (M.O.I. of 1) and immediately applied to the cells (co-attachment). Last, cardol triene was added to the cells after 1 h DENV2 adsorption (post-attachment). The experiments were incubated for 2 days at 37 °C. Intracellular viral RNA was determined from cell lysate using RT-qPCR and infectious virion was determined using plaque titration of the supernatant. DMSO was added to the experiment as a no-inhibition control. Means and standard error of the means (SEM) of three independent experiments were noted."}}, "data": [{"smiles": "C=CC/C=C/C/C=C/CCCCCCCc1cc(O)cc(O)c1", "note": "[Cardol triene, 5-[8(Z), 11(Z), 14-pentadecatrienyl]resorcinol]", "values": [{"measurement": "ZIKV pH-dependent cell fusion", "setting": "ZIKV", "result": "ZIKV-induced fused cells and nuclei were present"}, {"measurement": "CC50", "setting": "[1]; THP-1 cells", "result": "148 ± 3.78", "unit": "µM"}, {"measurement": "CC50", "setting": "[1]; HEK-293 cells", "result": "92.8 ± 3.93", "unit": "µM"}, {"measurement": "CC50", "setting": "[1]; HepG2 cells", "result": "140 ± 8.44", "unit": "µM"}, {"measurement": "CC50", "setting": "[2]", "result": "193 ± 6", "unit": "µM"}, {"measurement": "EC50", "setting": "DENV4 (c0036)", "result": "8.21 ± 0.34", "unit": "µM"}, {"measurement": "replicon cell viability", "setting": "[3]", "result": "did not have effect on cell viability"}, {"measurement": "CC50 at 48 h", "setting": "[4]", "result": "207 ± 5.24", "unit": "µM"}, {"measurement": "DENV2 pH-dependent cell fusion", "setting": "DENV2 [5]", "result": "exclusively inhibited dengue fusion"}, {"measurement": "EC50", "setting": "DENV3 (16562)", "result": "8.98 ± 1.77", "unit": "µM"}, {"measurement": "EC50", "setting": "[6]", "result": "5.35 to 8.89", "unit": "µM"}, {"measurement": "inhibition of intracellular RNA", "setting": "DENV2 [7]; 10 µM, post-infection, RT-qPCR", "result": "87.00 ± 6.43", "unit": "%"}, {"measurement": "inhibition of infectious virions", "setting": "DENV2 [7]; 10 µM, pre-incubation and co-infection", "result": "moderate inhibition"}, {"measurement": "inhibition at 10 µM", "setting": "DENV2 [7]; Dengue virus, DENV2, post-infection, plaque titration, read-out: inhibition of infectious virion", "result": "91.7 ± 4.53", "unit": "%"}]}]}
